Measured values reported in patent publication US20120035050A1, “Synergistic Combinations Of Active Ingredients” (BAYER CROPSCIENCE AG, priority 2009, published 2012).
Where two headings read alike, the source gives them in different places.

Key:
Assay type in all cases: in vivo
[1] = system: larvae of the mustard beetle (Phaedon cochleariae); test: Phaedon cochleariae larvae test; conditions: for Kill in % after 2^d: sprayed cabbage leaves
[2] = system: larvae of the armyworm (Spodoptera frugiperda); test: Spodoptera frugiperda test; conditions: sprayed cabbage leaves
[3] = system: greenhouse red spider mite (Tetranychus urticae); test: Tetranychus urticae test (OP-resistant/spray treatment)
Protocol: (§1) • Solvents: 78 parts by weight of acetone 1.5 parts by weight of dimethylformamide • Emulsifier: 0.5 part by weight of alkylaryl polyglycol ether
(§2) To produce a suitable preparation of active compound, 1 part by weight of active compound is mixed with the stated amount of solvent and emulsifier, and the concentrate is diluted with emulsifier-containing water to the desired concentration.
Discs of bean leaves (Phaseolus vulgaris) which are infested by all stages of the greenhouse red spider mite (Tetranychus urticae) are sprayed with an active compound preparation of the desired concentration.
After the desired period of time, the effect in % is determined. 100% means that all of the spider mites have been killed; 0% means that none of the spider mites have been killed.

[4] = system: green peach aphid (Myzus persicae); test: Myzus persicae test; conditions: 24 h, read-out: Kill in % after 1^d
Protocol: as §1, §2
Cabbage leaves (Brassica oleracea) which are heavily infested by the green peach aphid (Myzus persicae) are treated by spraying with the active compound preparation of the desired concentration.
After the desired period of time, the kill in % is determined 100% means that all of the aphids have been killed; 0% means that none of the aphids have been killed. The kill rates determined are entered into Colby's formula (see above).

[5] = Phaedon cochleariae, 144 h, single active compound, 20 g/ha, 6 d, read-out: Kill in % after 6 d
[6] = Phaedon cochleariae, 144 h, single active compound, 100 g/ha, 6 d, read-out: Kill in % after 6 d
[7] = Tetranychus urticae, 144 h, single active compound, 100 g/ha, 6 d, read-out: Kill in % after 6 d
[8] = single active compound, 100 g/ha
[9] = Phaedon cochleariae, 144 h, single active compound, 200 g/ha, 6 d, read-out: Kill in % after 6 d
[10] = Tetranychus urticae, 144 h, read-out: Kill in % after 6 d
[11] = single active compound, 500 g/ha, 6 d
[12] = 200 g/ha, spray on infested cabbage leaves, after 1 d
[13] = single active compound, 200 g/ha

Row | SMILES | pest or weed control at 200 g/ha ([4]; in Brassica oleracea) | pest or weed control at 200 g/ha [1, 9] | pest or weed control at 200 g/ha [3, 10] | also measured
1 | CN(Cc1cnc(Cl)c(F)c1)C1=CC(=O)OC1 [compound (I-6), 4-{[(6-chloro-5-fluorpyrid-3-yl)methyl](methyl)amino}furan-2(5H)-one] | – | – | – | Kill in % after 2^d ([1]; 100 g/ha): 33%; pest or weed control at 20 g/ha [1, 5]: 0%; pest or weed control at 100 g/ha [1, 6]: 67%; Kill in % after 6^d ([2]; 100 g/ha): 0%; pest or weed control at 100 g/ha [3, 7]: 0%; Kill in % after 2 d [3, 8]: 0%
2 | N#Cc1ccccc1NC(=O)c1snc(Cl)c1Cl [isotianil] | 0% | 0% | 0% | –
3 | Cc1ccc(N(SC(F)(Cl)Cl)S(=O)(=O)N(C)C)cc1 [tolylfluanid] | 0% | 17% | – | Kill in % after 6^d ([2]; 200 g/ha): 0%
4 | O=C(NCc1ncc(C(F)(F)F)cc1Cl)c1c(Cl)cccc1Cl [fluopicolide] | – | – | – | Kill in % after 6 d [1, 11]: 0%; Kill in % after 6 d [3, 11]: 0%
5 | O=C1C=C(N(Cc2ccc(Cl)nc2)CC(F)F)CO1 [compound (I-5), 4-{[(6-chloropyrid-3-yl)methyl](2,2-difluoroethyl)amino}furan-2(5H)-one] | – | – | – | pest or weed control at 0.8 g/ha ([4]; in Brassica oleracea): 50%; Kill in % after 2^d ([1]; 20 g/ha): 0%; pest or weed control at 20 g/ha [1, 5]: 0%; pest or weed control at 100 g/ha [1, 6]: 50%; pest or weed control at 100 g/ha [3, 10]: 0%; Kill in % after 2 d [3, 8]: 20%
6 | CCCOC(=O)NCCCN(C)C [propamocarb] | – | – | – | pest or weed control at 200 g/ha [4, 12]: 0%; pest or weed control at 200 g/ha ([3]; Tetranychus urticae, 144 h, single active compound, 200 g/ha, 6 d, read-out: Kill in % after 6 d): 0%; Kill in % after 2 d [3, 13]: 0%
7 | OC(Cc1ccccc1Cl)(Cn1ncnc1S)C1(Cl)CC1 (stereo not drawn) [prothioconazole] | 0% | – | 0% | Kill in % after 2^d ([1]; 200 g/ha): 0%
8 | CO/N=C(/C(=O)OC)c1ccccc1CO/N=C(\C)c1cccc(C(F)(F)F)c1 [trifloxystrobin] | – | 33% | – | Kill in % after 2^d ([1]; 200 g/ha): 0%
9 | CC(C)NC(=O)N1CC(=O)N(c2cc(Cl)cc(Cl)c2)C1=O [iprodione] | 0% | 0% | 50% | –
10 | Cc1ccc(C(C)NC(=O)[C@@H](NC(=O)OC(C)C)C(C)C)cc1 (stereo partly drawn) [iprovalicarb] | – | 0% | 0% | –
11 | COCC(=O)N(c1c(C)cccc1C)C(C)C(=O)OC (stereo not drawn) [metalaxyl] | 0% | 0% | 0% | –
12 | CC(C)(C)C(O)(CCc1ccc(Cl)cc1)Cn1cncn1 (stereo not drawn) [tebuconazole] | 0% | 0% | 70% | –
13 | N#Cc1c[nH]cc1-c1cccc2c1OC(F)(F)O2 [fludioxonil] | 0% | 17% | 0% | –
14 | CO/C=C(/C(=O)OC)c1ccccc1Oc1cc(Oc2ccccc2C#N)ncn1 [azoxystrobin] | – | – | – | pest or weed control at 500 g/ha ([1]; Phaedon cochleariae, 144 h, single active compound, 500 g/ha, 6 d, read-out: Kill in % after 6 d): 0%
15 | O=C1C=C(N(CCF)Cc2ccc(Cl)nc2)CO1 [compound (I-4), 4-{[(6-chloropyrid-3-yl)methyl](2-fluoroethyl)amino}furan-2(5H)-one] | – | – | – | pest or weed control at 0.8 g/ha ([4]; 0.8 g/ha, spray on infested cabbage leaves, after 1 d): 50%; Kill in % after 2^d ([1]; 20 g/ha): 0%; pest or weed control at 20 g/ha [1, 5]: 0%; pest or weed control at 100 g/ha [1, 6]: 17%; pest or weed control at 4 g/ha ([3]; Tetranychus urticae, 144 h, single active compound, 4 g/ha, 6 d, read-out: Kill in % after 6 d): 50%; pest or weed control at 100 g/ha [3, 7]: 80%
16 | CC(C)(C)C(O)C(Oc1ccc(Cl)cc1)n1cncn1 (stereo not drawn) [triadimenol] | 0% | 0% | 0% | Kill in % after 2 d [3, 13]: 0%
17 | CSC1=N[C@@](C)(c2ccccc2)C(=O)N1Nc1ccccc1 [fenamidone] | 0% | – | – | Kill in % after 2^d ([1]; 200 g/ha): 0%
18 | Cc1nn(C)c(F)c1C(=O)Nc1ccccc1C(C)CC(C)C (stereo not drawn) [N-[2-(1,3-dimethylbutyl)phenyl]-5-fluoro-1,3-dimethyl-1H-pyrazole-4-carboxamide] | – | 0% | – | pest or weed control at 200 g/ha [4, 12]: 0%
19 | O=C(NCCc1ncc(C(F)(F)F)cc1Cl)c1ccccc1C(F)(F)F [fluopyram, N-[2-[3-chloro-5-(trifluoromethyl)-2-pyridinyl]ethyl]-2-(trifluoromethyl)benzamide] | 0% | 0% | 0% | –
